Results reported in patent US6902933B2, “Surface transfection and expression procedure” (Regents of the University of Michigan, priority 2000, dated 2005).

Experiments:
Assay type in all cases: cell-based
[1] = test system: tetracycline responsive element; experiment: Transactivation assay using a tetracycline inducible system (pBi-EGFP) after STEP transfection; settings: HEK TetOn cells; 10 mg/ml of doxycycline; 48 hours after plating
Description: To determine whether STEP transfection could be modified to generate inducible expression of a protein, the tetracycline inducible system developed by Bujard and coworkers was employed (Baron et al. (2000) Proc Natl Acad Sci USA 96:1013-1018). […] Two DNA complexes were prepared for these experiments, one containing the pBi-EGFP plasmid (Clontech) directing the expression of EGFP under the control of a tetracycline responsive element and another complex containing pEGFP-C1 plasmid DNA (Clontech) with EGFP expression under the control of the strong human cytomegalovirus early promoter. Spots for each of these complexes were applied next to each other on each of two different microscope slides and HEK TetOn cells were plated onto each slide in separate 10 cm culture dishes. Twenty-four hours after transfection, one plate was incubated in DMEM and 10% FCS while the other was incubated in the same media containing 10 mg/ml of doxycycline. Fluorescence photomicrographs were prepared 48 hours after plating of the cells. […] In the absence of doxycycline, none of the cells on the pBiEGFP spot were fluorescent while approximately 30% of the cells on the pEGFP-C1 spot were fluorescent.

[2] = biological target: T1, human D1 dopamine receptor (Homo sapiens, UniProt P21728); experiment: STEP D1 dopamine receptor activation assay with pCRE-d2EGFP reporter; settings: 48 hours, C1-APB 1 micromolar; for Pixels per spot in STEP D1 activation experiment: HEK-293T cells transfected with CMV.D1 and pCRE-d2EGFP, GFP fluorescence, MCID image analysis
T1 construct: expressed in transfected cells; host or cells: HEK-293T
T1 sequence (P21728 whole entry): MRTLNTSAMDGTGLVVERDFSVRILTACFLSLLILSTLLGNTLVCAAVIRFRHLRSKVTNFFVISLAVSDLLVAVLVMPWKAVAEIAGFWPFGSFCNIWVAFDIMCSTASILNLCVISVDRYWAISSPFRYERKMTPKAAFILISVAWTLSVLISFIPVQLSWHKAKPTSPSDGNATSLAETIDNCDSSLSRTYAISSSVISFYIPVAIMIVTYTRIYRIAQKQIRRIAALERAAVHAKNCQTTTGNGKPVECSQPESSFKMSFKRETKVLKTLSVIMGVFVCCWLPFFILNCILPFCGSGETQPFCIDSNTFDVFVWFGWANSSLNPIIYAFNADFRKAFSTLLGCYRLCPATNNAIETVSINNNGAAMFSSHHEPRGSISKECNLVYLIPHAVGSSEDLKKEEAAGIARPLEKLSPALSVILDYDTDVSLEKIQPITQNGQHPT
Description: (§1) The purpose of the experiment was to measure activation of the D1 dopamine receptor by a D1 receptor agonist, Chloro-APB (C1-APB). Activation of the D1 receptor by C1-APB could be measured by virtue of it's coupling to adenylate cyclase and subsequent generation of cyclic AMP, as indicated by the pathway shown in FIG. 3.
Three hundred nanograms of pCMV.D1 (or control vector pCMV.Neo) and 300 ng of pCRE-d2EGFP in 10 microliters were mixed with 10 microliters of transferrin-polylysine complex (1 mg/ml). After 10 minutes, 10 microliters of lipofectamine (1 mg/ml) were added and the mixture incubated for an addition 10 minutes. Spots of approximately 100 nanoliters were placed onto four different polylysine coated microscope slides, and the spots allowed to dry under ambient room conditions. […] The three slides plated with cells were grown in the presence of either C1-APB or the phosphodiesterase inhibitor IBMX or both C1-APB and IBMX.
(§2) After 48 hours, the cells were examined using fluorescence microscopy.

[3] = test system: cyclic AMP responsive promoter (pCRE-d2EGFP) in HEK-293T cells; experiment: STEP D1 activation experiment, control vector pCMV.Neo with pCRE-d2EGFP reporter; settings: HEK-293T cells transfected with control vector CMV.Neo and pCRE-d2EGFP; 48 hours; GFP fluorescence, MCID image analysis
Description: as §1
Three hundred nanograms of pCMV.D1 (or control vector pCMV.Neo) and 300 ng of pCRE-d2EGFP in 10 microliters were mixed with 10 microliters of transferrin-polylysine complex (1 mg/ml). After 10 minutes, 10 microliters of lipofectamine (1 mg/ml) were added and the mixture incubated for an addition 10 minutes. Spots of approximately 100 nanoliters were placed onto four different polylysine coated microscope slides, and the spots allowed to dry under ambient room conditions. HEK-293T cells were then plated onto three slides, while one slide was grown only in media containing serum. The three slides plated with cells were grown in the presence of either C1-APB or the phosphodiesterase inhibitor IBMX or both C1-APB and IBMX.
as §2

[4] = test system: rat PC-12 pheochromocytoma; experiment: STEP transfection efficiency with different cell surface ligands in the transfection complex; settings: PC-12 cells; ligand in the transfection complex; GFP fluorescence; penton protein 0.64 mg/ml
Description: In the following experiments, transfection complexes were formed as described in Example 1, except that in the preparation of some transfection complexes, purified penton protein was used instead of transferring the penton protein was used at a concentration of 0.64 mg/ml. Transfection complexes were thus prepared with either transferrin or penton protein. After immobilizing the complexes as described in Example 1, the cell lines rat PC-12 pheochromocytoma and HEK-293T were transfected as described in Example 1.
The results are shown in FIG. 4 as sets of images; the cell line is indicated at the top of the images, and the ligand used in the transfection complex is indicated to the right of the images. The images under each indicated cell line are either brightfield images (to the left) or fluorescence images (to the right).

[5] = biological target: T2, human MC1R (Homo sapiens, UniProt Q01726); experiment: Dose response of melanocortin receptor 1 agonists, pCRE-Luciferase reporter, 96 well STEP; settings: increasing concentrations, 6 hours; HEK-239T cells; FIG. 8
T2 construct: expressed in transfected cells; host or cells: HEK-293T
T2 sequence (Q01726 whole entry): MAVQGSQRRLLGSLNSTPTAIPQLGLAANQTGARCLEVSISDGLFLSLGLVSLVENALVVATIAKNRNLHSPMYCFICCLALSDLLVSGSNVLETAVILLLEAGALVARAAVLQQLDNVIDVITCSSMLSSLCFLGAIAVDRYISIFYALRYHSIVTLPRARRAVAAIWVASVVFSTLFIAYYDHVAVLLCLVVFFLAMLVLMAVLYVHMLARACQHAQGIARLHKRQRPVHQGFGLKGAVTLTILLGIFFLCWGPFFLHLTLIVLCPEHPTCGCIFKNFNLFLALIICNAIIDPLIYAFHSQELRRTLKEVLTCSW
Description: In the following examples a polylysine coated 96 well plate was used. DNA transfection complexes were generated essentially as described in Example 1. The components a-d from Example 1 were added sequentially but without the 5 min. incubation. The DNA transfection complexes were applied by direct pipetting (complexes can also be applied by automated liquid handling systems) to the bottom of each well in a total volume of 20 μl, and the spots were allowed to dry under ambient conditions until completely dry. HEK-293T cells were prepared as in Example 1.200 μl of media containing 10^4 HEK-293T cells were added to each well. When using the expression vector pZsGreen-N1 (Clontech BD), which encodes a variant of wild-type Zoanthus sp. green fluorescent protein ZsGreen; (excitation maximum=496 nm; emission maximum=506 nm. Ref: Matz, M. V., et al. (1999) Nature Biotech. 17:969-973), the cells were visualized using fluorescent microscopy after 24 and 48 hours following transfections.
DNA complexes were formed with human MC1R cDNA (GenBank Accession No. X67594) and with either pCRE-Luciferase or the control plasmid pTal-Luciferase (lacking the CRE binding sequences). The complexes were applied to the surface of individual wells of a polylysine coated 96 well plate; after complete drying, HEK-239T cells were then added. […]

Compound	Pixels per spot in STEP D1 activation experiment [2]	luciferase activity, dose response curve of the MC1R [5]	Pixels per spot in STEP D1 activation experiment [3]	also measured
C[C@H]1c2cccc(O)c2C(=O)C2=C(O)[C@]3(O)C(=O)C(C(N)=O)=C(O)[C@@H](N(C)C)[C@@H]3[C@@H](O)[C@@H]21 [doxycycline]				cells on the pBi-EGFP spot with detectable GFP expression [1]: 20%
transferrin: ligand for a receptor which is endocytosed, used as complexing agent in the transfection complex				transfection efficiency [4]: less than 10%
αMSH		signal is well above background		

Further lines, with some results ahead:

Pixels per spot in STEP D1 activation experiment [2]	luciferase activity, dose response curve of the MC1R [5]	Compound	Pixels per spot in STEP D1 activation experiment [3]	also measured
165 + 35 pixels per spot		CC(C)Cn1c(=O)n(C)c(=O)c2[nH]cnc21 [UBMX, IBMX]	65 + 32 pixels per spot	
447 + 38 pixels per spot		C=CCN1CCc2c(cc(O)c(O)c2Cl)C(c2ccccc2)C1 (stereo not drawn) [Cl-APB, Chloro-APB]	46 + 38 pixels per spot	expression of the green fluorescent protein reporter ([2]; cells expressing the D1 receptor, fluorescence microscopy): significantly greater expression
	signal is well above background	N-acetyl-[Cys^4,10,D-Phe^7]-αMSH		
